Reference: patent US9840510B1, “Pyrazolo[1,5-a]pyrimidinyl carboxamide compounds and their use in the treatment of medical disorders” (Lysosomal Therapeutics Inc., priority 2016, dated 2017)
Values after ≈ are worked out from the molar mass of the structure shown.

Assay: Compound solubility in water
Type: physicochemical

SMILES | solubility [µg/mL]
Cc1cc(C)n2ncc(C(=O)N[C@@H](C)C3CC3)c2n1 [III-1] | 27 (≈ 105 µM)
Cc1cc(C)n2ncc(C(=O)NC(C)(C)C3CC3)c2n1 [III-2] | 27.4 (≈ 101 µM)
Cc1cc(C)n2ncc(C(=O)N[C@H](C)C3CCCCC3)c2n1 [III-3] | 8.7 (≈ 29 µM)
Cc1cc(C)n2ncc(C(=O)N[C@@H](C)C3CCCCC3)c2n1 [III-4] | 16.1 (≈ 53.6 µM)
Cc1cc(C)n2ncc(C(=O)NC(CC(C)C)C3CC3)c2n1 (centres unmarked) [III-5] | 25.7 (≈ 85.6 µM)
CNc1cc(C)n2ncc(C(=O)N[C@@H](C)C3CC3)c2n1 [III-6] | 23.8 (≈ 87.1 µM)
Cc1cc(-c2ccc(F)cc2)nc2c(C(=O)N[C@@H](C)C3CC3)cnn12 [III-7] | 1.6 (≈ 4.73 µM)
Cc1cc(-c2ccc(F)cc2)n2ncc(C(=O)N[C@@H](C)C3CC3)c2n1 [III-8] | 0.5 (≈ 1.48 µM)
Cc1cc(C)n2ncc(C(=O)NC(C3CC3)C(F)(F)F)c2n1 (centres unmarked) [III-9] | 18 (≈ 57.6 µM)
Cc1cc(C)n2ncc(C(=O)N[C@H](C3CC3)C(F)(F)F)c2n1 [III-10] | 15.3 (≈ 49 µM)
Cc1cc(C)n2ncc(C(=O)N[C@@H](C3CC3)C(F)(F)F)c2n1 [III-11] | 13.4 (≈ 42.9 µM)
Cc1cc(C)n2ncc(C(=O)NC3(C4CC4)CC3)c2n1 [III-12] | 38.4 (≈ 142 µM)
Cc1cc(C)n2ncc(C(=O)NC(C)(C)C3CC4(CCC4)C3)c2n1 [III-13] | 0.3 (≈ 0.919 µM)
Cc1cc(Cl)n2ncc(C(=O)NC(C)(C)C3CC3)c2n1 [III-14] | 10.7 (≈ 36.5 µM)
Cc1cc(Cl)nc2c(C(=O)NC(C)(C)C3CC3)cnn12 [III-15] | 14.1 (≈ 48.2 µM)
Cc1cc(-c2ccccn2)nc2c(C(=O)NC(C)(C)C3CC3)cnn12 [III-16] | 1.1 (≈ 3.28 µM)
Cc1cc(-c2ccccn2)n2ncc(C(=O)NC(C)(C)C3CC3)c2n1 [III-17] | 2.2 (≈ 6.56 µM)
Cc1cc(-c2cccnc2)nc2c(C(=O)NC(C)(C)C3CC3)cnn12 [III-18] | 17.4 (≈ 51.9 µM)
Cc1cc(-c2cccnc2)n2ncc(C(=O)NC(C)(C)C3CC3)c2n1 [III-19] | 5.3 (≈ 15.8 µM)
Cc1cc(-c2ccncc2)nc2c(C(=O)NC(C)(C)C3CC3)cnn12 [III-20] | 6.3 (≈ 18.8 µM)
Cc1cc(-c2ccncc2)n2ncc(C(=O)NC(C)(C)C3CC3)c2n1 [III-21] | 10 (≈ 29.8 µM)

SMILES | solubility [µg/mL]
Cc1cc(N2CCCCC2)n2ncc(C(=O)NC(C)(C)C3CC3)c2n1 [III-22] | 0.5 (≈ 1.46 µM)
Cc1cc(N2CCCCC2)nc2c(C(=O)NC(C)(C)C3CC3)cnn12 [III-23] | 6.8 (≈ 19.9 µM)
Cc1cc(-c2ccccn2)n2ncc(C(=O)N[C@@H](C)C3CC3)c2n1 [III-25] | 22.5 (≈ 70 µM)
Cc1cc(-c2cccnc2)n2ncc(C(=O)N[C@@H](C)C3CC3)c2n1 [III-27] | 18 (≈ 56 µM)
Cc1cc(-c2ccncc2)nc2c(C(=O)NC(C)C3CC3)cnn12 (centres unmarked) [III-28] | 27.6 (≈ 85.9 µM)
Cc1cc(-c2ccncc2)n2ncc(C(=O)N[C@@H](C)C3CC3)c2n1 [III-29] | 18.9 (≈ 58.8 µM)
Cc1cc(N2CCCCC2)n2ncc(C(=O)N[C@@H](C)C3CC3)c2n1 [III-30] | 4.7 (≈ 14.4 µM)
Cc1cc(N2CCCCC2)nc2c(C(=O)NC(C)C3CC3)cnn12 (centres unmarked) [III-31] | 43.5 (≈ 133 µM)
Cc1cc(-c2ccc(F)cc2)nc2c(C(=O)N[C@@H](C)C3CC3)c(Cl)nn12 [III-32] | 0.1 (≈ 0.268 µM)
Cc1cc(-c2ccc(F)cc2)n2nc(Cl)c(C(=O)N[C@@H](C)C3CC3)c2n1 [III-33] | 0.5 (≈ 1.34 µM)
Cc1cc(C)n2nc(Cl)c(C(=O)N[C@@H](C)C3CC3)c2n1 [III-34] | 10.3 (≈ 35.2 µM)
Cc1cc(-c2cccnc2)nc2c(C(=O)NC(C3CC3)C(F)(F)F)cnn12 (centres unmarked) [III-35] | 6.5 (≈ 17.3 µM)
Cc1cc(-c2ccccn2)nc2c(C(=O)NC(C3CC3)C(F)(F)F)cnn12 (centres unmarked) [III-36] | 0.4 (≈ 1.07 µM)
Cc1cc(-c2cccnc2)nc2c(C(=O)N[C@H](C)c3ccc(Cl)cc3)cnn12 [III-37] | 2.1 (≈ 5.36 µM)
Cc1cc(-c2cccnc2)nc2c(C(=O)N[C@H]3CC[C@H](OC(C)(C)C)CC3)cnn12 [III-38] | 18.2 (≈ 44.7 µM)
Cc1cc(-c2cccnc2)nc2c(C(=O)N[C@H]3CC[C@H](OCC(C)C)CC3)cnn12 [III-39] | 4.4 (≈ 10.8 µM)
CCCO[C@H]1CC[C@H](NC(=O)c2cnn3c(C)cc(-c4cccnc4)nc23)CC1 [III-40] | 20 (≈ 50.8 µM)
Cc1cc(-c2cccnc2)nc2c(C(=O)NC(C(C)C)C(F)(F)F)cnn12 (centres unmarked) [III-41] | 1.9 (≈ 5.03 µM)
CCC(NC(=O)c1cnn2c(C)cc(-c3cccnc3)nc12)C(F)(F)F (centres unmarked) [III-42] | 15.1 (≈ 41.6 µM)
Cc1cc(-c2cccnc2)nc2c(C(=O)NC(C)C(F)(F)F)cnn12 (centres unmarked) [III-43] | 12.1 (≈ 34.6 µM)
Cc1cc(NC2CC2)nc2c(C(=O)NC(C3CC3)C(F)(F)F)cnn12 (centres unmarked) [III-44] | 3 (≈ 8.49 µM)

SMILES | solubility [µg/mL]
Cc1cc(Cl)nc2c(C(=O)NC(C3CC3)C(F)(F)F)cnn12 (centres unmarked) [III-45] | 10.2 (≈ 30.7 µM)
COCc1cc(-c2ccc(F)cc2)nc2c(C(=O)N[C@@H](C)C3CC3)cnn12 [III-46] | 3.4 (≈ 9.23 µM)
COCc1cc(-c2ccc(F)cc2)nc2c(C(=O)NC(C)(C)C3CC3)cnn12 [III-47] | 0.3 (≈ 0.784 µM)
CCc1cc(-c2ccccn2)n2ncc(C(=O)NC(C)C3CC3)c2n1 (centres unmarked) [III-48] | 19.8 (≈ 59 µM)
CCc1cc(-c2ccccn2)nc2c(C(=O)NC(C)C3CC3)cnn12 (centres unmarked) [III-49] | 2.5 (≈ 7.45 µM)
Cc1cc(-c2ccccn2)nc2c(C(=O)NC(C)C(F)(F)F)cnn12 (centres unmarked) [III-50] | 1.6 (≈ 4.58 µM)
CCc1cc(-c2ccccn2)n2ncc(C(=O)NC(C)C(F)(F)F)c2n1 (centres unmarked) [III-51] | 14.1 (≈ 38.8 µM)
CCc1cc(-c2ccccn2)nc2c(C(=O)NC(C)C(F)(F)F)cnn12 (centres unmarked) [III-52] | 2.4 (≈ 6.61 µM)
COc1cccc(-c2cc(C)n3ncc(C(=O)NC(C)C(F)(F)F)c3n2)c1 (centres unmarked) [III-55] | 1.7 (≈ 4.49 µM)
Cc1cc(-c2cccc(F)c2)nc2c(C(=O)N[C@@H](C)C3CC3)cnn12 [III-56] | 1.1 (≈ 3.25 µM)
COc1cccc(-c2cc(C)n3ncc(C(=O)N[C@@H](C)C4CC4)c3n2)c1 [III-57] | 2.7 (≈ 7.7 µM)
Cc1cc(N2CCOCC2)nc2c(C(=O)NC(C)C3CC3)cnn12 (centres unmarked) [III-58] | 20.1 (≈ 61 µM)
Cc1cc(N2CCOCC2)nc2c(C(=O)NC(C)(C)C3CC3)cnn12 [III-59] | 10.3 (≈ 30 µM)
Cc1cc(N2CCC(F)(F)CC2)nc2c(C(=O)NC(C)C3CC3)cnn12 (centres unmarked) [III-60] | 4.4 (≈ 12.1 µM)
Cc1cc(N2CCCC(F)(F)C2)nc2c(C(=O)NC(C)C3CC3)cnn12 (centres unmarked) [III-61] | 5.5 (≈ 15.1 µM)
Cc1cc(-c2cccc(Cl)n2)nc2c(C(=O)NC(C)(C)C3CC3)cnn12 [III-62] | 1.2 (≈ 3.24 µM)
C#CC(C)(C)NC(=O)c1cnn2c(C)cc(-c3cccc(Cl)n3)nc12 [III-63] | 0.2 (≈ 0.565 µM)
Cc1cc(-c2cccc(Cl)c2)nc2c(C(=O)NC(C)C(F)(F)F)cnn12 (centres unmarked) [III-64] | 6.2 (≈ 16.2 µM)
Cc1cc(-c2cccc(Cl)c2)nc2c(C(=O)N[C@@H](C)C3CC3)cnn12 [III-65] | 0.9 (≈ 2.54 µM)
Cc1cc(N2CCCC(F)(F)C2)nc2c(C(=O)NC(C3CC3)C(F)(F)F)cnn12 (centres unmarked) [III-66] | 0.3 (≈ 0.719 µM)
Cc1cc(N2CCC(F)(F)C2)nc2c(C(=O)NC(C3CC3)C(F)(F)F)cnn12 (centres unmarked) [III-67] | 1.9 (≈ 4.71 µM)

SMILES | solubility [µg/mL]
Cc1cc(C(F)(F)F)nc2c(C(=O)NC(C)(C)C3CC3)cnn12 [III-68] | 11.9 (≈ 36.5 µM)
C#CC(C)(C)NC(=O)c1cnn2c(C)cc(-c3cccc(OC)c3)nc12 [III-69] | 0.5 (≈ 1.44 µM)
Cc1cc(-c2cccc(C#N)c2)nc2c(C(=O)N[C@@H](C)C3CC3)cnn12 [III-70] | 2.1 (≈ 6.08 µM)
Cc1cc(-c2cccc(C#N)c2)nc2c(C(=O)NC(C)(C)C3CC3)cnn12 [III-71] | 0.5 (≈ 1.39 µM)
Cc1cc(-c2cccc(C#N)c2)nc2c(C(=O)NC(C3CC3)C(F)(F)F)cnn12 (centres unmarked) [III-72] | 0.1 (≈ 0.25 µM)
Cc1cc(-c2cccc(C(N)=O)c2)nc2c(C(=O)NC(C3CC3)C(F)(F)F)cnn12 (centres unmarked) [III-73] | 0.4 (≈ 0.958 µM)
COCc1cc(-c2cccc(F)c2)nc2c(C(=O)NC(C)(C)C3CC3)cnn12 [III-74] | 0.8 (≈ 2.09 µM)
C#CC(C)(C)NC(=O)c1cnn2c(C)cc(-c3cccc(F)c3)nc12 [III-75] | 0.6 (≈ 1.78 µM)
CCOc1cccc(-c2cc(C)n3ncc(C(=O)NC(C)C(F)(F)F)c3n2)c1 (centres unmarked) [III-76] | 0.2 (≈ 0.51 µM)
Cc1cc(-c2cccc(OC3CC3)c2)nc2c(C(=O)NC(C)C(F)(F)F)cnn12 (centres unmarked) [III-77] | 0.3 (≈ 0.742 µM)
Cc1cc(NC2CC2)nc2c(C(=O)NC(C3CC3)C3CC3)cnn12 [III-78] | 5.6 (≈ 17.2 µM)
COCc1cc(-c2cccc(OC)c2)nc2c(C(=O)NC(C)(C)C3CC3)cnn12 [III-79] | 0.5 (≈ 1.27 µM)
Cc1cc(-c2cccc(F)c2)nc2c(C(=O)NC(C)(C)C(F)(F)F)cnn12 [III-80] | 0.2 (≈ 0.526 µM)
C#CC(C)(C)NC(=O)c1cnn2c(C)cc(-c3cccc(Cl)c3)nc12 [III-81] | 1.5 (≈ 4.25 µM)
C#CC(C)(C)NC(=O)c1cnn2c(C)cc(-c3cccc(OC4CC4)c3)nc12 [III-82] | 1.5 (≈ 4.01 µM)
Cc1cc(-c2ccc3ocnc3c2)nc2c(C(=O)NC(C3CC3)C(F)(F)F)cnn12 (centres unmarked) [III-83] | 0.3 (≈ 0.722 µM)
Cc1cc(-c2ccc(F)nc2)nc2c(C(=O)NC(C3CC3)C(F)(F)F)cnn12 (centres unmarked) [III-84] | 0.8 (≈ 2.03 µM)
Cc1cc(-c2cccnc2F)nc2c(C(=O)NC(C3CC3)C(F)(F)F)cnn12 (centres unmarked) [III-85] | 1 (≈ 2.54 µM)
Cc1cc(-c2ccc(F)cc2)nc2c(C(=O)N[C@H](C)C3CC3)cnn12 [III-86] | 2.8 (≈ 8.27 µM)
Cc1cc(-c2cccnc2)nc2c(C(=O)N[C@H](C3CC3)C(F)(F)F)cnn12 [III-88] | 14.8 (≈ 39.4 µM)
